Values joined by “and” are separate entries in the source; they are usually repeats but may differ in a detail not shown here. Identical values can stand only once.
What was measured:
plasma hormone levels = experiment: Pharmacodynamic determination in monkeys: plasma aldosterone and cortisol after ACTH stimulation; type: in vivo, cynomolgus monkeys; conditions: P.O.
Method: Cynomolgus monkeys were used as test animals to evaluate the pharmacodynamics of multiple compounds of the present disclosure on plasma hormone levels following gavage administration (P.O.) at various doses such as 0.1 mpk (and others, e.g., 0.03 mpk, 0.1 mpk, and 0.3 mpk).
Male cynomolgus monkeys, Suzhou Xishan Zhongke Laboratory Animal Co., Ltd. Animal production license number: SCXK (Su) 2023-0001, animal use license number: SYXK (Su) 2020-0017.
Male cynomolgus monkeys were performed gavage administration (P.O.) at doses set as: 0 mpk (vehicle group, i.e., Veh group), 0.03 mpk, 0.1 mpk, and 0.3 mpk. In each group, 15 µg/kg ACTH was injected intramuscularly 1 hour after dosing. Continuous venous blood samples were collected from each group at 1 hour before administration and at multiple time points after administration. Blood samples were collected, and plasma aldosterone and its precursors, as well as plasma corticosterone and its precursors, at multiple time points were analyzed using LC/MS methods.
Venous blood samples were collected at 1-2 hours before gavage administration and at multiple time points after intramuscular injection of ACTH (adrenocorticotropic hormone). The samples were placed in EDTA-K2 tubes, centrifuged at 4 °C, 2600 g for 10 minutes to separate plasma, which was then stored at -80 °C.
• HPLC: Waters ACQUITY UPLC I-Class PLUS; • Mass spectrometry conditions: Triple Quad™ 7500 (Serial No. FA224362212) mass spectrometer; • Chromatographic column: phenomenex kinetex 2.6µm C8 100A 50 × 4.60 mm; • Mobile phase: mobile phase A was 0.5 mM ammonium fluoride solution containing 0.1% formic acid; mobile phase B was MeOH.
The data in Figs. 1, 2, 3, 4, and 5 are analyzed based on PD changes at 30 minutes after ACTH stimulation. The percentage of PD relative to the control group (Veh group) at 30 minutes after ACTH stimulation serves as the main basis for pharmacodynamic evaluation, calculated according to the following formula: [formula] where PD refers to aldosterone or cortisol. Table 8 Pharmacodynamic Evaluation of Example Compound C44 in Monkeys

human CYP11B1 enzyme = target: T1, human CYP11B1 enzyme (Homo sapiens, UniProt P15538); experiment: Enzyme inhibition activity assay in G402 cells stably expressing human CYP11B1 (cortisol production from 11-DC, LC/MS); type: cell-based; conditions: 1 µM 11-DC, 16 hours, cortisol detected
T1 construct: the ORF of human CYP11B1 or CYP11B2 were transfected into G402 cells; expressed in transfected cells
T1 sequence (P15538 25-503): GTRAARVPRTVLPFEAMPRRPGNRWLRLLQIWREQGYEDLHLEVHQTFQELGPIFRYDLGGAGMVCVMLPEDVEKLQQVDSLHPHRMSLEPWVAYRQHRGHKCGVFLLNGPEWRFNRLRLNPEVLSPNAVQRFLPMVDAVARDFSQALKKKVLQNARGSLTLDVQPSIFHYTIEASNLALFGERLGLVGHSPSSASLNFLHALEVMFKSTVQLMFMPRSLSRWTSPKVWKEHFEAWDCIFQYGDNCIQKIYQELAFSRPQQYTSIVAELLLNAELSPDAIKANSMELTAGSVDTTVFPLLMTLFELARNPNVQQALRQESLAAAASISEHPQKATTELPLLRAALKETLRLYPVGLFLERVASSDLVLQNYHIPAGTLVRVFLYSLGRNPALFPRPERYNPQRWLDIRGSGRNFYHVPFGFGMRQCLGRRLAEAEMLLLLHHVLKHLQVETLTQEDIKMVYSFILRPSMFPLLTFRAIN
From the text: (§1) G402 cells (ATCC, CRL 1440) are epithelioid cells isolated from the kidney of a patient with renal failure and are a type of leiomyoblastoma. For the screening of highly specific CYP11B2 inhibitors, we specifically used G402 cell lines stably expressing human CYP11B2 enzyme or human CYP11B1 enzyme for experimental development.
(§2) Construction of Stably Transfected Cell Lines: Expression plasmids containing suitable promoters, suitable drug resistance markers, and the ORF of human CYP11B1 or CYP11B2 were transfected into G402 cells using standard techniques. The cells were then screened using the specific puromycin resistance marker. Monoclonal cells stably expressing human CYP11B2 were selected for expansion, and 11-deoxycorticosterone (11-DOC) was used as the specific substrate to evaluate enzyme activity based on aldosterone production. Monoclonal cells stably expressing human CYP11B1 were selected for expansion, and 11-deoxycortisol (11-DC) was used as the specific substrate, with cortisol production as the detection target for specific enzyme activity evaluation. The G402 cell lines stably expressing CYP11B1/CYP11B2 were cultured at 37 °C, 5% CO2, 95% air in complete medium (McCoy's 5A + 10% FBS + 1% PS + 0.5 µg/mL puromycin).
(§3) Enzyme Inhibition Activity Assay: CYP11B1 G402/CYP11B2 G402 cells were spread out flatly in cell culture plates. After 24 hours, the medium was changed to an enzyme testing system (DMEM/F12 + 2.5% charcoal-stripped FCS). Small molecule inhibitors at various concentrations were added. After 1 hour, appropriate concentrations of specific substrates (1 µM 11-DOC / 1 µM 11-DC) were added and co-incubated with the cells for 16 hours. Cells were then collected, and specific products were detected using LC/MS methods with an AB SCIEX TRIPLE QUAD 5500+, CTO-40S instrument (CYP11B2 enzyme detecting aldosterone; CYP11B1 enzyme detecting cortisol).
(§4) The IC50 values of the compounds were determined based on the G402 testing system. The dose-dependent inhibition of enzyme activity was calculated by plotting the added inhibitor concentration (x-axis) against the percentage of product inhibitory activity relative to the control group (y-axis) based on product formation at various compound concentrations. The following data were then fitted using the least squares method with XLfit 5.5.0 for a four-parameter logistic curve fit: [formula] • Y-axis: Percentage of product inhibitory activity relative to the control group; • logIC50: IC50 was determined using XLFit.
(§5) The maximum enzyme activity corresponds to the amount of control product steroid/aldosterone in the absence of inhibitor, set as 100%. The minimum enzyme activity corresponds to the amount of reference control product steroid/aldosterone in the presence of inhibitor. Table 3 Inhibitory Activity of the Compounds of the Present Disclosure on CYP11B2 and CYP11B1

human CYP11B2 enzyme = target: T2, human CYP11B2 enzyme (Homo sapiens, UniProt P19099); experiment: Enzyme inhibition activity assay in G402 cells stably expressing human CYP11B2 (aldosterone production from 11-DOC, LC/MS); type: cell-based; conditions: 1 µM 11-DOC, 16 hours, aldosterone detected
T2 construct: the ORF of human CYP11B1 or CYP11B2 were transfected into G402 cells; expressed in transfected cells
T2 sequence (P19099 25-503): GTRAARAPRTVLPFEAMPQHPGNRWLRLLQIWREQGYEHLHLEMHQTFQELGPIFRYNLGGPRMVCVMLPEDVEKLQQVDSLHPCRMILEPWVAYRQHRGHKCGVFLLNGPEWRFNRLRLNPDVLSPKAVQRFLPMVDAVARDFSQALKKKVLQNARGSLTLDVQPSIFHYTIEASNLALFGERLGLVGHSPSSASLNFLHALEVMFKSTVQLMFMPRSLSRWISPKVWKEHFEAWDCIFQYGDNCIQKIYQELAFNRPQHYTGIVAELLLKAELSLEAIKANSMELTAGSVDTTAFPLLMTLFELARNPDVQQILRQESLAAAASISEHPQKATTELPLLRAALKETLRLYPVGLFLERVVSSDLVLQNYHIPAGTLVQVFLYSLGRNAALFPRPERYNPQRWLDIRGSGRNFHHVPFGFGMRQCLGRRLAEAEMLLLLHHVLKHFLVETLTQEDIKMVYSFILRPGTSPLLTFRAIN
From the text: as §1, §2, §3, §4, §5

in vivo = conditions: male, Sprague-Dawley, rat, plasma, po, 10 mg/kg
Method: • 1) 50 µL of plasma sample was precipitated by adding 200 µL of acetonitrile, vortex mixed, and centrifuged for 15 minutes. • 2) The processed supernatant was diluted with water and analyzed by LC/MS/MS to determine the concentration of the test compound.
Pharmacokinetic parameters were calculated using WinNonlin 8.3. […] Cmax represents the maximum plasma concentration, T1/2 represents the terminal elimination half-life, MRTInf represents the mean residence time, and AUC represents the area under the plasma concentration-time curve.

[1] = Pharmacokinetic determination in mice after gavage administration (P.O.); type: in vivo; conditions: male, CD-1, mouse, po, 10 mg/kg, plasma; for AUC(0-t): read-out: AUC0-24
Method: Mice and rats were used as test animals to study the pharmacokinetic behavior of the compounds of the present disclosure in plasma following gavage administration (P.O.). Plasma samples were collected at specific time points, compound concentrations in plasma were detected by LC-MS/MS, and pharmacokinetic parameters were calculated to evaluate the pharmacokinetics.
• Mice, CD-1, male, Zhejiang Vital River Laboratory Animal Technology Co., Ltd. • Rats, Sprague-Dawley, male, Zhejiang Vital River Laboratory Animal Technology Co., Ltd., Shanghai Jihui Experimental Animal Breeding Co., Ltd.
After administration to mice and rats, venous blood samples of 0.03 mL and 0.2 mL, respectively, were collected at 0.0833 (IV), 0.25, 0.5, 1, 2, 4, 8, and 24 hours and placed in EDTA-K2 test tubes. Plasma was separated by centrifugation at 4 °C, 4000 g for 5 minutes and stored at -80 °C.
• 1) 10 µL of plasma sample was precipitated by adding 200 µL of acetonitrile, vortex mixed, and centrifuged for 15 minutes. • 2) The processed supernatant was diluted with water and analyzed by LC/MS/MS to determine the concentration of the test compound.
Pharmacokinetic parameters were calculated using WinNonlin 8.3. The pharmacokinetic parameters for mice P.O. are shown in Table 4, and for rats P.O. in Table 5. Cmax represents the maximum plasma concentration, T1/2 represents the terminal elimination half-life, MRTInf represents the mean residence time, and AUC represents the area under the plasma concentration-time curve. Table 4 Pharmacokinetic Parameters of the Compounds of the Present Disclosure in Mice

[2] = 0.03 mpk, 30min after ACTH stimulation, plasma
[3] = 0.1 mpk, 30min after ACTH stimulation, plasma
[4] = 0.3 mpk, 30min after ACTH stimulation, plasma

CCC(=O)N[C@@H]1CCOc2c(-c3ccc4c(ccc(=O)n4C)c3)cncc21 [Compound A09]
Aldosterone (plasma hormone levels; 0.03 mpk, 0h, plasma): 0.20 ng/mL | Cortisol (plasma hormone levels; 0.03 mpk, 0h, plasma): 214.0 ng/mL | Aldosterone (plasma hormone levels; [2]): 0.34 ng/mL | Cortisol (plasma hormone levels; [2]): 285.3 ng/mL | Aldosterone (plasma hormone levels; 0.1 mpk, 0h, plasma): 0.24 ng/mL | Cortisol (plasma hormone levels; 0.1 mpk, 0h, plasma): 256.7 ng/mL | Aldosterone (plasma hormone levels; [3]): 012 ng/mL | Cortisol (plasma hormone levels; [3]): 345.0 ng/mL | Aldosterone (plasma hormone levels; 0.3 mpk, 0h, plasma): 0.08 ng/mL | Cortisol (plasma hormone levels; 0.3 mpk, 0h, plasma): 286.7 ng/mL | Aldosterone (plasma hormone levels; [4]): 0.07 ng/mL | Cortisol (plasma hormone levels; [4]): 388.3 ng/mL | IC50 (human CYP11B1 enzyme): 3380 nM and 18800 nM | IC50 (human CYP11B2 enzyme): 8.2 nM and 13.8 nM | AUC(0-t) (in vivo): 522 µM·h | Cmax (in vivo): 52.1 µM | MRT inf (in vivo): 8.19 h | half-life (in vivo): 5.91 h

CCC(=O)N[C@@H]1CCCc2c(-c3ccc4c(c3)COC(=O)N4C)cncc21 [Compound C07]
Cmax [1]: 30.2 µM | MRT inf [1]: 4.36 h | half-life [1]: 2.54 h | AUC(0-t) [1]: 223 µM·h | IC50 (human CYP11B1 enzyme): 1150 nM | IC50 (human CYP11B2 enzyme): 13.2 nM

CCC(=O)N[C@@H]1CCCc2c(-c3cc(F)c4c(ccc(=O)n4C)c3)cncc21 [Compound C41]
Cmax [1]: 25 µM | MRT inf [1]: 5.07 h | half-life [1]: 2.83 h | AUC(0-t) [1]: 209 µM·h | IC50 (human CYP11B1 enzyme): 4900 nM | IC50 (human CYP11B2 enzyme): 11.1 nM

CCC(=O)N[C@@H]1CCCc2c(-c3cc(C)c4c(ccc(=O)n4C)c3)cncc21 [Compound C43]
Aldosterone (plasma hormone levels; 0.03 mpk, 0h, plasma): 0.16 ng/mL | Cortisol (plasma hormone levels; 0.03 mpk, 0h, plasma (Table 11)): 268.3 ng/mL | Aldosterone (plasma hormone levels; [2]): 0.26 ng/mL | Cortisol (plasma hormone levels; 0.03 mpk, 30min after ACTH stimulation, plasma (Table 11)): 358.7 ng/mL | Aldosterone (plasma hormone levels; 0.1 mpk, 0h, plasma): 0.16 ng/mL | Cortisol (plasma hormone levels; 0.1 mpk, 0h, plasma (Table 11)): 282.0 ng/mL | Aldosterone (plasma hormone levels; [3]): 0.15 ng/mL | Cortisol (plasma hormone levels; 0.1 mpk, 30min after ACTH stimulation, plasma (Table 11)): 386.0 ng/mL | Aldosterone (plasma hormone levels; 0.3 mpk, 0h, plasma): 0.20 ng/mL | Cortisol (plasma hormone levels; 0.3 mpk, 0h, plasma (Table 11)): 276.0 ng/mL | Aldosterone (plasma hormone levels; [4]): 0.14 ng/mL | Cortisol (plasma hormone levels; 0.3 mpk, 30min after ACTH stimulation, plasma (Table 11)): 346.7 ng/mL | IC50 (human CYP11B1 enzyme): 7220 nM | IC50 (human CYP11B2 enzyme): 16.7 nM | AUC(0-t) (in vivo): 345 µM·h | Cmax (in vivo): 47.9 µM | MRT inf (in vivo): 6.24 h | half-life (in vivo): 4.77 h

CCC(=O)N[C@@H]1CCCc2c(-c3cc(F)c4c(c3)COC(=O)N4C)cncc21 [Compound C44]
Aldosterone (plasma hormone levels; 0.03 mpk, 0h, plasma): 0.07 ng/mL | Cortisol (plasma hormone levels; 0.03 mpk, 0h, plasma): 279.5 ng/mL | Aldosterone (plasma hormone levels; [2]): 0.28 ng/mL | Cortisol (plasma hormone levels; [2]): 384.0 ng/mL | Aldosterone (plasma hormone levels; 0.1 mpk, 0h, plasma): 0.24 ng/mL | Cortisol (plasma hormone levels; 0.1 mpk, 0h, plasma): 455.0 ng/mL | Aldosterone (plasma hormone levels; [3]): 0.20 ng/mL | Cortisol (plasma hormone levels; [3]): 538.5 ng/mL | Aldosterone (plasma hormone levels; 0.3 mpk, 0h, plasma): 0.07 ng/mL | Cortisol (plasma hormone levels; 0.3 mpk, 0h, plasma): 265.5 ng/mL | Aldosterone (plasma hormone levels; [4]): 0.07 ng/mL | Cortisol (plasma hormone levels; [4]): 396.0 ng/mL | Cmax [1]: 53.1 µM | MRT inf [1]: 4.78 h | half-life [1]: 2.28 h | AUC(0-t) [1]: 421 µM·h | IC50 (human CYP11B2 enzyme): 187 nM
